Source: PubChem BioAssay (NCI)
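Method: 48-hour compound exposure of cells in 96-well plates, five concentrations, linear interpolation of endpoints. GI50 is the concentration that inhibits growth by half. At the TGI there is no net growth.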

Experiments:
Experiment in all cases: DTP human tumour cell line panel, 48 h
A549 NSCLC = system: A549 NSCLC
RPMI-8226 leukemia = system: RPMI-8226 leukemia
UACC-257 melanoma = system: UACC-257 melanoma
CAKI-1 renal = system: CAKI-1 renal
SK-MEL-5 melanoma = system: SK-MEL-5 melanoma
HOP-62 NSCLC = system: HOP-62 NSCLC
IGROV1 ovarian = system: IGROV1 ovarian
NCI-H522 lung = system: NCI-H522 lung
U251 CNS = system: U251 CNS
SNB-19 CNS = system: SNB-19 CNS

Row | Structure (SMILES) | TGI (A549 NSCLC) [µM] | TGI (RPMI-8226 leukemia) [µM] | TGI (UACC-257 melanoma) [µM] | TGI (CAKI-1 renal) [µM] | TGI (SK-MEL-5 melanoma) [µM] | TGI (HOP-62 NSCLC) [µM] | TGI (IGROV1 ovarian) [µM] | TGI (NCI-H522 lung) [µM] | TGI (U251 CNS) [µM] | TGI (SNB-19 CNS) [µM] | GI50 (A549 NSCLC) [µM] | GI50 (UACC-257 melanoma) [µM] | GI50 (SK-MEL-5 melanoma) [µM] | GI50 (HOP-62 NSCLC) [µM] | GI50 (IGROV1 ovarian) [µM] | GI50 (NCI-H522 lung) [µM] | GI50 (U251 CNS) [µM] | GI50 (SNB-19 CNS) [µM] | GI50 (RPMI-8226 leukemia) [µM] | GI50 (CAKI-1 renal) [µM]
1 | COc1cc(/C=C/C(=O)Oc2ccccc2)ccc1C(=O)O/C=C/c1ccccc1 | > 100 | > 100 | > 100 | > 100 | > 100 | > 100 | > 100 | > 100 | > 100 | > 100 | – | – | – | – | – | – | – | – | – | –
2 | CC(C)(C)OC(=O)N1C2CCCC23O[C@@H]1c1cc2c(cc1C3=O)OCO2 (some centres undefined) | > 100 | – | > 100 | 87.1 | 26.1 | > 100 | > 100 | 31.3 | > 100 | > 100 | – | – | – | – | – | – | – | – | – | –
3 | Cc1ccc2[c](c1)[Sn]([c]1ccccc1)([c]1ccccc1)[c]1cc(C)ccc1N2C | > 100 | – | > 100 | – | > 100 | > 100 | > 100 | > 100 | > 100 | > 100 | > 100 | 57.8 | 33.2 | > 100 | 58.7 | 21.8 | 87.5 | > 100 | – | –
4 | CCOC(=O)C1=C(N)Oc2c(sc3c(C)cccc23)C1c1ccc(F)cc1 (centres undefined) | 17.2 | 5.38 | 27.7 | 14.9 | 8.49 | 20.1 | 13.5 | 3.29 | 17 | 16.3 | 0.804 | 12.6 | 1.18 | 0.618 | 0.475 | 0.35 | 0.58 | 0.621 | 0.489 | 0.413
5 | COc1cc(C(=O)O[C@H](C(N)=O)[C@]2(C)CO2)c2cccc(C)c2c1 | > 100 | – | > 21.3 | – | 0.0522 | 5.35 | 0.0567 | 0.638 | – | 5.02 | – | 1.49 | < 0.0158 | 2.23 | < 0.01 | < 0.0342 | – | 1.21 | – | < 0.0211
6 | O=C(NC1CCCCC1)c1ccc(Nc2ncnc3c2cnn3-c2ccccc2)cc1 | 51.3 | > 100 | > 100 | > 100 | > 100 | 8.77 | 65.9 | > 100 | – | 18.9 | 4.38 | 6.42 | 21.7 | 2.62 | 14.4 | 6.4 | – | 3.82 | > 100 | 14
7 | COc1cc2c3c(n(CCCN(CCO)CCO)c(=O)c2cc1OC)-c1cc2c(cc1C3=O)OCO2 | 13 | 0.207 | > 22.5 | < 0.018 | 0.413 | – | > 100 | – | 0.628 | > 35.5 | 0.155 | 1.55 | < 0.0159 | < 0.01 | – | – | < 0.01 | 0.603 | < 0.01 | < 0.01
8 | CC1COS(=O)O1 (centres undefined) | > 100 | > 100 | > 100 | > 100 | > 100 | > 100 | > 100 | > 100 | – | > 100 | – | – | – | – | – | – | – | – | – | –
9 | COc1cc(/C=C2\CCC/C(=C\c3ccc(OCC4CO4)c(OC)c3)C2=O)ccc1OCC1CO1 (centres undefined) | 5.09 | – | 3.91 | > 100 | 3.52 | 9.59 | 7.07 | 6 | 5.27 | 76.4 | 2.14 | 1.82 | 1.74 | 3.38 | 2.87 | 2.47 | 2.11 | 4.73 | – | 3.3
10 | COc1cc(/C=C/C(=O)C(C(=O)/C=C/c2ccc(OC(=O)CCNC34CC5CC(CC(C5)C3)C4)c(OC)c2)C(=O)CCNC23CC4CC(CC(C4)C2)C3)ccc1OC(=O)CCNC12CC3CC(CC(C3)C1)C2 (centres undefined) | 10.1 | 5.02 | 14 | > 100 | 13.4 | > 100 | – | 15.2 | 11.3 | 15.9 | 2.86 | 3.45 | 3.36 | 9.12 | – | 3.46 | 3.25 | 4.07 | 2.12 | 5.72
11 | NC(=S)N/N=C1\CCCC\C1=C/c1ccccc1 | > 100 | 38.2 | 44.4 | – | – | > 100 | 71.5 | 37.9 | > 100 | > 100 | – | – | – | – | – | – | – | – | – | –
12 | C=C1C(=O)OC2C1CC(OC(C)=O)/C(C)=C/CCC1(C)OC21 (centres undefined) | > 100 | > 100 | > 100 | > 100 | > 100 | – | > 100 | > 100 | > 100 | > 100 | – | – | – | – | – | – | – | – | – | –
13 | C[Si](C)(C)CN1C(=O)c2ccccc2C1(O)c1ccccc1 (centres undefined) | > 100 | – | > 100 | > 91.6 | > 100 | > 100 | > 100 | > 100 | > 100 | > 100 | – | – | – | – | – | – | – | – | – | –
14 | CSc1ccc2c(cc1=O)[C@@H](NC(=O)c1cc(O)c(O)c(O)c1)CCc1cc(O)c(O)c(O)c1-2 | 92 | – | 34.3 | – | 36.1 | > 100 | – | 44.4 | 37.7 | > 100 | – | – | – | – | – | – | – | – | – | –
15 | CCCCCCCCCCCCCCCCCCC1=C(O)C(=O)C=C(OC)C1=O | > 100 | – | > 100 | > 100 | > 100 | > 100 | > 100 | 82.2 | > 100 | > 100 | – | – | – | – | – | – | – | – | – | –
16 | O=C1/C(=C/N2N=C(c3ccc4ccccc4c3)CC2c2ccccc2O)SC(=S)N1c1cccnc1 (centres undefined) | > 100 | > 100 | – | > 100 | 39 | > 100 | > 100 | – | 61 | > 100 | 0.704 | – | 3.01 | 2.49 | 1.47 | – | 0.897 | 3.85 | 0.391 | 1.03
17 | O=C(Nc1ccc(Cl)cc1)Nc1nccs1 | > 100 | 16.6 | – | 54.8 | 15.3 | > 100 | > 100 | 14.4 | 26.9 | > 100 | 0.775 | – | 0.514 | 15.1 | 1.26 | 1.92 | 3.44 | 3.67 | 2.63 | 2.36
